{
  "source": "patent US11229611B2",
  "about": "“Clobazam transdermal delivery system and uses thereof” (TAHO Pharmaceuticals Ltd., priority 2020, dated 2022)",
  "key": {"[1]": {"experiment": "solubility and compatibility of clobazam in a variety of excipients", "format": "physicochemical", "procedure": "Solubility and compatibility of clobazam were tested in a variety of excipients according to the following functions: (1) alcohols; (2) emollients/oils; (3) esters; (4) fatty acids; (5) fatty acid esters; (6) fatty alcohols; (7) solubilizers; (8) solvents; and (9) surfactants."}, "[2]": {"tested_on": "isolated human cadaver epidermis", "experiment": "flux through skin of EVA/PIB multilaminate formulations", "format": "in vitro ADME", "from_the_text": "In certain embodiments, the adhesive composition contains the HMW and LMW PIB in weight ratios (HMW PIB: LMW PIB) in the range of about 3-40:97-60, in the range of about 5-25:95-75 and in the range of about 10-20:90-80. The ratio of HMW PIE to LMW PIE that provides an optimal adhesive for a specific drug agent will be dependent upon the identity and concentration of agent being delivered. As an example, in one effective embodiment the PIB adhesive includes 5 wt % HMW PIB material (such as OPPANOL L80, LlOO, and L 140 from BASF) and 95 wt % LMW PIB material (Such as OPPANOL BlO, BI 1, B12, and B13 from BASF).\nOptionally, modification of flux of the drug through the PIB can be effected by incorporating in the adhesive material such as micronized, crosslinked polyvinylpyrrolidone (PVP), such as CROSPOVIDONE (Kollidon CL-CY from BASF typically with bulk density between 0.2-0.3 g/cm3 and particle size D90 of 10-20 micron). Such PVP improves the permeability of clobazam material through the PIB layer.\nVarying the amounts of CROSPOVIDONE in the PIB adhesive would result in fine-tuning the flux of clobazam to desired levels. For example, multilaminate formulations containing different PVP amounts were tested for the effect of such variation on flux through skin. The multilaminate formulations contained 35 wt % of clobazam base in EVA40, an EVA12 as tie layer and PIB adhesive (5:95 L100:B12 PIB) with 12 wt % or 18 wt % PVP were tested. […] A formulation containing 30 wt % clobazam base and 15 wt % PVP was also tested. The flux of clobazam formulation from this formulation was 6.3μg/(cm^2 h). […] PIB polymers are available commercially, e.g., under the tradename VISTANEX™ from Exxon Chemical. The amount of PVP in the resulting adhesive can be about 1 wt % to 30 wt %, about 5 wt % to 25 wt %, about 8 wt % to 20 wt %.\nTransdermal flux can be measured with a standard procedure using Franz cells or using an array of formulations. Flux experiments were done on isolated human cadaver epidermis. With Franz cells, in each Franz diffusion cell a disc of epidermis is placed on the receptor compartment. A transdermal delivery system is placed over the diffusion area (1.98 cm^2) in the center of the receptor. The donor compartment is then added and clamped to the assembly. At time 0, receptor solution (between […] and 24 ml, exactly measured) is added into the receptor compartment and the cell maintained at 35° C. This temperature yields a skin surface temperature of 30-32° C. Samples of the receptor compartment are taken periodically to determine the flux through skin and analyzed by HPLC. An alternative way to test flux is to use an array of patches. In testing flux with an array of transdermal miniature patches, formulations are prepared by mixing stock solutions of each of the mixture components of formulation in organic solvents (about 15 wt % solids), followed by a mixing process. The mixtures are then aliquoted onto arrays as 4-mm diameter drops and allowed to dry, leaving behind solid samples or “dots.” (i.e., mini-patches). The miniature patches in the arrays are then tested individually for flux through skin using a permeation array, whose principle of drug flux from a patch formulation through epidermis to a compartment of receptor medium is similar to that of Franz cells (an array of miniature cells). […] Receptor fluid is auto-sampled from each of the permeation wells at regular intervals and then measured by HPLC to determine the flux of the drug."}, "[3]": {"conditions": "cited from earlier work"}},
  "data": [
    {"smiles": "CN1C(=O)CC(=O)N(c2ccccc2)c2cc(Cl)ccc21", "note": "[clobazam, 7-Chloro-1-methyl-5-phenyl-1,5-dihydro benzo[b][1,4]diazepine-2,4-dione]", "values": [
      {"measurement": "solubility among various alcohols", "setting": "[1]; in 4-allyl-2-ethoxyphenol", "value": "good solubility"},
      {"measurement": "solubility among various surfactants, polymers and oils", "setting": "[1]; in Caprylocaproyl polyoxyl-8 glycerides and transcutol P", "value": "some solubility"},
      {"measurement": "solubility in solvents", "setting": "[1]; in DCM, chloroform, DMA, DMI, DMSO and NMP", "value": "good solubility"},
      {"measurement": "solubility among various fatty acids and fatty acid esters", "setting": "[1]; in methyl L-lactate, levulinic acid and ethyl levulinate", "value": "good solubility"},
      {"measurement": "average clobazam base flux", "setting": "[2]; 5:95 L100:B12 PIB adhesive with 20 wt % CROSPOVIDONE", "value": "33.3 μg/(cm^2-h)"},
      {"measurement": "flux", "setting": "[2]; 35 wt % clobazam base in EVA40, EVA12 tie layer, PIB adhesive (5:95 L100:B12) with 12 wt % PVP", "value": "5.4 μg/(cm^2 h)"},
      {"measurement": "flux", "setting": "[2]; 35 wt % clobazam base in EVA40, EVA12 tie layer, PIB adhesive (5:95 L100:B12) with 18 wt % PVP", "value": "7.5 μg/(cm^2 h)"},
      {"measurement": "clobazam base average flux", "setting": "[2]; clobazam 35 wt % in EVA40 drug layer 4-7 mil, PIB adhesive 5 wt % HMW / 95 wt % LMW, 2-3 mil", "value": 5.5, "unit": "μg/cm^2-h"},
      {"measurement": "flux", "setting": "[2]; formulation with 30 wt % clobazam base and 15 wt % PVP", "value": "6.3 μg/(cm^2 h)"},
      {"measurement": "solubility in water", "setting": "[3]; water at 25° C.", "value": 70, "unit": "microgram/ml"},
      {"measurement": "water Solubility", "setting": "[3]; water", "value": 164, "unit": "µg/mL"}
    ]}
  ]
}
